Results published in US6051557A, “Methods of enhancing functioning of the upper gastrointestinal tract” (1149336 Ontario Inc., priority 1998, dated 2000).

What was measured:
Assay type in all cases: in vivo
stomach = stomach mass after oral administration in drinking water; details: female CD1 mice, approx. 100 μg per day in drinking water, 12 days, p<0.05 vs normal drinking water
Experimental: In this experiment, the effect of GLP-2 on the stomach mass was examined. Female CD1 mice (6 weeks old) were treated with human [[…] ]GLP-2 by oral administration in drinking water. The drinking water contained 4.3 μg/ml of human [[…] ]GLP-2 and was prepared fresh daily. Each mouse received approximately 100 μg of human [[…] ]GLP-2 per day. Following 12 days of treatment the mice were fasted for 24 hours, anesthetized with CO2 and sacrificed. The stomach of each mouse was removed and weighed.

esophagus = test: total protein content of mouse esophagus (modified Bradford assay); details: female CD1 mice, 2.5 ug s.c. twice daily for 10 days, vs PBS
Experimental: In this experiment, the effect of human [Gly^2 ]GLP-2 on protein synthesis in the mouse esophagus was examined. Female CD1 mice (6 weeks old) were housed and fed as described in Example 1. Two groups of mice (n=5 per group) were treated twice daily (subcutaneously) with either 0.5 ml PBS alone (control) or 2.5 ug in 0.5 ml PBS for 10 days. Following treatment, mice were anesthetized with CO2 and sacrificed for analysis. One (1) cm segments of esophagus tissue, between 2-4 cm proximal to the gastroduodenal junction, were harvested for analysis of total cellular protein. The 1 cm esophageal segments were placed in 1 ml of PBS and homogenized using a Polytron. Aliquots of the homogenate were taken for protein determination of protein content using the modified Bradford assay (BIORAD).

[1] = test system: indomethacin induced mucosal epithelial damage; test: indomethacin induced gastroenterocolitis in mice; details: 0.75 μg s.c. twice daily
Description: In this experiment, the prophylactic and therepeutic effect of GLP-2 on indomethacin induced mucosal epithelial damage was studied.
GLP-2 administration to mice and rats stimulates mucosal growth in both the small and large intestine via activation of crypt cell proliferation and inhibition of enterocyte apoptosis. To address the possibility that GLP-2 may be useful for the therapeutic and/or prophylactic treatment of mucosal epithelial damage, we have studied the use of a novel human GLP-2 analog, h[Gly^2 ]-GLP-2, in mice with experimental indomethacin induced gastroenterocolitis.
Six to eight week old female CD1 mice (approximately 22-28 g, Charles River) were housed in plastic bottom, wire lid cages and maintained on a 12 hr light/dark cycle and allowed chow and water ad libitum throughout the study. The day prior to commencing the experiment, mice were weighed using a Mettler PJ300 scale and randomly allocated to a treatment group. Each treatment group consisted of 5 mice housed together. Subcutaneous injections of PBS or h[Gly^2 ]-GLP-2 peptide were given in the right hind quarter twice a day at 9 am and 7 pm. Injections started 4 days before indomethacin administration. Mice were fasted the night prior to receiving the first dose of indomethacin.
Mice were sacrificed between 9 am and 5 pm. […] Small and large bowel length were also measured. […]

[2] = test system: mucosal epithelium and muscle layer of the esophagus; test: BrdU cell proliferation in mouse esophagus; details: female CD1 mice, 2.5 μg s.c. twice daily, 50 hr period, vs PBS
Description: In this experiment, the effect of GLP-2 on cell proliferation of the mucosal epithelium and muscle layer of the esophagus was examined.
Female CD1 mice (6 weeks of age, approx. 25 g, Charles River) were housed in plastic bottom, wire lid cages and maintained on a 12 hr light/dark cycle and allowed chow and water ad libitum. The mice were weighed using a Mettler PJ300 scale and randomly allocated to either the control group (phosphate buffer saline injection ("PBS")) or the treatment group (human [Gly^2 ]GLP-2 injection). Each control or treatment group consisted of 2 mice housed together in 1 cage.
The female CD1 mice were treated (subcutaneously) with either human [Gly^2 ]GLP-2 2.5 μg or PBS alone, twice daily (8 a.m. and 6 p.m.) for 2 days prior to the bromodeoxyuridine ("BrdU") injection (50 ug/g body weight, in 0.5 ml). The mice received a total of 5 injections of either human [Gly^2 ]GLP-2 or saline over the previous 50 hours. Mice were fasted 21 hours before sacrifice. The mice were sacrificed 2 hours after receiving the BrdU injection. Upon sacrifice, sections of distal esophagus (the last 2 cm of esophagus adjacent to the gastroduodenal junction) were taken for histological analysis.
The esophageal tissues were fixed in 10% buffered formalin for over 24 hours and then placed in 70% alcohol prior to processing. […]

## CC[C@H](C)[C@H](NC(=O)[C@H](Cc1ccccc1)NC(=O)[C@H](CC(=O)O)NC(=O)[C@H](CCCNC(=N)N)NC(=O)[C@H](C)NC(=O)[C@H](C)NC(=O)[C@H](CC(C)C)NC(=O)[C@H](CC(N)=O)NC(=O)[C@H](CC(=O)O)NC(=O)[C@H](CC(C)C)NC(=O)[C@@H](NC(=O)[C@@H](NC(=O)[C@H](CC(N)=O)NC(=O)[C@H](CCSC)NC(=O)[C@H](CCC(=O)O)NC(=O)[C@H](CC(=O)O)NC(=O)[C@H](CO)NC(=O)[C@H](Cc1ccccc1)NC(=O)[C@H](CO)NC(=O)CNC(=O)[C@H](CC(=O)O)NC(=O)CNC(=O)[C@@H](N)Cc1c[nH]cn1)[C@@H](C)O)[C@@H](C)CC)C(=O)N[C@@H](CC(N)=O)C(=O)N[C@@H](Cc1c[nH]c2ccccc12)C(=O)N[C@@H](CC(C)C)C(=O)N[C@H](C(=O)N[C@@H](CCC(N)=O)C(=O)N[C@H](C(=O)N[C@@H](CCCCN)C(=O)N[C@H](C(=O)N[C@H](C(=O)N[C@@H](CC(=O)O)C(=O)O)[C@@H](C)O)[C@@H](C)CC)[C@@H](C)O)[C@@H](C)CC [human [Gly^2]GLP-2]
stomach
  weights of the stomachs: significantly increase
esophagus
  protein synthesis (total protein content) in esophagus tissue: increase
[1]; indomethacin-treated mice, vs saline
  majority of parameters assessed, especially markers of epithelial damage/inflammation: significantly improved
[1]; treatment groups II-V, indomethacin 7 mg/kg, saline-treated controls 45-50%
  survival: 75-95%
[2]
  cellular proliferation of the mucosal epithelium of the esophagus (number of BrDU-positive cells): significant increases
  cellular proliferation of the muscle layer of the esophagus (number of BrDU-positive cells): significant increases
